Test results reported in US20250360100A1, “ANTI-CANCER DERIVATIVES OF OVATODIOLIDE AND USE THEREOF” (ARJIL BIOTECH HOLDING COMPANY LIMITED, priority 2024, published 2025).
In brackets after ≈: the same amount, converted by molar mass.

Experiments:
[1] = tested on: Colo205 (human colon adenocarcinoma cells); assay: MTT cytotoxicity assay in Colo205 cells; assay type: cell-based; details: COLO 205, 48 hours treatment, read-out: CC50 (50% cytotoxic concentration)
Description: (§1) In the invention, the cytotoxic effect was evaluated by the viability of cancer/tumor cells measured by the MTT assay, in several cancer cell lines, including the cell lines 293, A549, Colo205, SK-HEP1, PC-3, PANC-1, and AGS.
(§2) The compounds as tested were dissolved in DMSO (100 mg/mL), along with Doxorubicin (Dox), taken as a benchmark control, and the in vitro cytotoxicity in cancer cell lines were tested from 60 or 100 μg/mL with three-fold serial dilutions, and the 50% cytotoxic concentration (CC50) of test articles was determined by MTT assay.
(§3) Seven cancer cell lines were used in this example, including 293 (human embryonic kidney cells 293), A549 (human non-small cell lung cancer cells), Colo205 (human colon adenocarcinoma cells), SK-HEP1 (human hepatic cancer cells), PC-3 (human prostate carcinoma), PANC-1 (human pancreatic epithelioid carcinoma), and AGS (human gastric adenocarcinoma cells), cultured in the media and indicated as the table above. Briefly, cells seeded in 96-well plates were treated for 48 hours with the compounds as tested and the solvent (0.1% DMSO) as the vehicle control, respectively. Cell viability was determined by the MTT method, and the CC50 values were calculated using GraFit (Version 7, Erithacus Software Ltd., Horley, UK) and recorded.

[2] = tested on: SK-HEP1 (human hepatic cancer cells); assay: MTT cytotoxicity assay in SK-HEP1 cells; assay type: cell-based; details: 48 hours treatment, read-out: CC50 (50% cytotoxic concentration)
Description: as §1, §2, §3

[3] = tested on: A549 (human non-small cell lung cancer cells); assay: MTT cytotoxicity assay in A549 cells; assay type: cell-based; details: 48 hours treatment, read-out: CC50 (50% cytotoxic concentration)
Description: as §1, §2, §3

[4] = tested on: seven cancer cell lines (293, A549, Colo205, SK-HEP1, PC-3, PANC-1, AGS); assay: MTT cytotoxicity, overall statement for the seven cancer cell lines; assay type: cell-based, human; details: all seven cell lines, 48 hours
Description: as §1, §2, §3

[5] = tested on: PC-3 (human prostate carcinoma); assay: MTT cytotoxicity assay in PC-3 cells; assay type: cell-based; details: 48 hours treatment, read-out: CC50 (50% cytotoxic concentration)
Description: as §1, §2, §3

[6] = tested on: AGS (human gastric adenocarcinoma cells); assay: MTT cytotoxicity assay in AGS cells; assay type: cell-based; details: 48 hours treatment, read-out: CC50 (50% cytotoxic concentration)
Description: as §1, §2, §3

[7] = tested on: 293 (human embryonic kidney cells 293); assay: MTT cytotoxicity assay in 293 cells; assay type: cell-based; details: HEK293, 48 hours treatment, read-out: CC50 (50% cytotoxic concentration)
Description: as §1, §2, §3

[8] = tested on: PANC-1 (human pancreatic epithelioid carcinoma); assay: MTT cytotoxicity assay in PANC-1 cells; assay type: cell-based; details: 48 hours treatment, read-out: CC50 (50% cytotoxic concentration)
Description: as §1, §2, §3

Compound | CC50 [1] | CC50 [2] | CC50 [3] | cytotoxicity (result in words) [4] | CC50 [5] | CC50 [6] | CC50 [7] | CC50 [8]
C=C1C(=O)O[C@H]2/C=C(\C)C[C@@H]3C=C(CCC4OC4(C)CC[C@H]12)C(=O)O3 (stereo partly drawn) [Ova-Oxy] | 17 ± 0.2 µg/mL (≈ 49.4 µM) | 45.2 ± 3.2 µg/mL (≈ 131 µM) | 23 ± 4.7 µg/mL (≈ 66.8 µM) | exhibit cytotoxic effects in all of the seven cancer cell lines | 12.3 ± 5.4 µg/mL (≈ 35.7 µM) | 9.1 ± 0.9 µg/mL (≈ 26.4 µM) | 22.5 ± 0.5 µg/mL (≈ 65.3 µM) | 32 ± 0.8 µg/mL (≈ 92.9 µM)
COc1cccc2c1C(=O)c1c(O)c3c(c(O)c1C2=O)C[C@@](O)(C(=O)CO)C[C@@H]3O[C@H]1C[C@H](N)[C@H](O)[C@H](C)O1 [Dox, Doxorubicin] | 8.7 ± 0.6 µg/mL (≈ 16 µM) | 9.8 ± 0.2 µg/mL (≈ 18 µM) | > 10 µg/mL |  | 10.3 ± 1.5 µg/mL (≈ 19 µM) | 0.3 ± 0.1 µg/mL (≈ 0.552 µM) | > 10 µg/mL | 10.7 ± 1.5 µg/mL (≈ 19.7 µM)
C=C1C(=O)O[C@H]2/C=C(\C)C[C@@H]3C=C(CC/C=C(\C)CC[C@H]12)C(=O)O3 [AR100-DS1, ovatodiolide] | 41.7 ± 4.5 µg/mL (≈ 127 µM) | 49.9 ± 5.2 µg/mL (≈ 152 µM) | 29.6 ± 0.4 µg/mL (≈ 90.1 µM) |  | 17.8 ± 0.2 µg/mL (≈ 54.2 µM) | 13 ± 5.1 µg/mL (≈ 39.6 µM) | 25.7 ± 2.5 µg/mL (≈ 78.3 µM) | 40.2 ± 3.9 µg/mL (≈ 122 µM)
C/C1=C\CCC2=C[C@@H](C/C(C)=C/[C@@H]3OC(=O)C(CSCCO)[C@H]3CC1)OC2=O (stereo partly drawn) [Ova-ST2] | > 100 µg/mL | > 100 µg/mL | > 100 µg/mL | did not exhibit the cytotoxicity | > 100 µg/mL | > 100 µg/mL | > 100 µg/mL | > 100 µg/mL
